Measurements reported in ChEMBL document CHEMBL3877242, “Synthesis of novel 25-hydroxyprotopanaxadiol derivatives by methylation and methoxycarbonylation using dimethyl carbonate as a environment-friendly reagent and their anti-tumor evaluation” (Bioorg Med Chem Lett, 2016).

What was measured:
[1] = tested on: DU-145; assay: (§1) Cytotoxicity against human DU145 cells assessed as reduction in cell viability after 48 hrs by MTT assay; format: functional, cell-based
[2] = as §1; format: functional, cell-based; conditions: DU-145, 48 h
[3] = Cytotoxicity against human IOSE-144 cells assessed as reduction in cell viability after 48 hrs by MTT assay; format: toxicity, cell-based
[4] = Cytotoxicity against human HeLa cells assessed as reduction in cell viability after 48 hrs by MTT assay; format: functional, cell-based
[5] = Cytotoxicity against human DU145 cells assessed as viable cells at 30 uM after 48 hrs by MTT assay; format: functional; conditions: DU-145, 48 h, read-out: GI
[6] = Cytotoxicity against human HeLa cells assessed as cell growth inhibition at 30 uM after 48 hrs by MTT assay; format: functional; conditions: read-out: GI
[7] = tested on: DU-145; assay: Potency index, ratio of 5-FU IC50 to compound IC50 for human DU145 cells; format: functional

Row | SMILES | growth inhibition (GI) [1] | IC50 [2] [µM] | IC50 at 48 h [3] [µM] | IC50 [4] [µM] | inhibition of growth at 30 µM [5] [%] | inhibition of growth at 30 µM [6] [%] | Ratio IC50 [7]
1 | COC(=O)O[C@H]1CC[C@]2(C)[C@H]3C[C@@H](O)[C@@H]4[C@@H]([C@@](C)(CCCC(C)(C)OC(=O)OC)OC)CC[C@@]4(C)[C@]3(C)CC[C@H]2C1(C)C | Dose-dependent effect | 32.6 | > 100 | 38.2 |  |  | 
2 | COC(=O)O[C@H]1CC[C@]2(C)[C@H]3C[C@@H](O)[C@@H]4[C@@H]([C@@](C)(CCCC(C)(C)O)OC)CC[C@@]4(C)[C@]3(C)CC[C@H]2C1(C)C | Dose-dependent effect | 3.9 | > 100 | 7.1 | 18.6 | 18.6 | 
3 | CO[C@H]1CC[C@]2(C)[C@H]3C[C@@H](OC)[C@@H]4[C@@H]([C@@](C)(CCCC(C)(C)OC)OC)CC[C@@]4(C)[C@]3(C)CC[C@H]2C1(C)C | Dose-dependent effect | 18.7 | > 100 | 21.8 |  |  | 
4 | COC(C)(C)CCC[C@@](C)(O)[C@H]1CC[C@]2(C)[C@@H]1[C@H](O)C[C@@H]1[C@@]3(C)CC[C@H](O)C(C)(C)[C@@H]3CC[C@]12C |  | 5.4 | > 100 | 22.5 |  |  | 
5 | COC(=O)O[C@H]1CC[C@]2(C)[C@H]3C[C@@H](OC(=O)OC)[C@@H]4[C@@H](/C(C)=C/CCC(C)(C)OC(=O)OC)CC[C@@]4(C)[C@]3(C)CC[C@H]2C1(C)C | Dose-dependent effect | 80.3 | > 100 | > 100 |  |  | 
6 | CC(C)(O)CCC[C@@](C)(O)[C@H]1CC[C@]2(C)[C@@H]1[C@H](O)C[C@@H]1[C@@]3(C)CC[C@H](O)C(C)(C)[C@@H]3CC[C@]12C |  | 57.9 | > 100 | 46.4 |  |  | 
7 | COC(=O)O[C@H]1CC[C@]2(C)[C@H]3C[C@@H](O)[C@@H]4[C@@H](/C(C)=C/CCC(C)(C)O)CC[C@@]4(C)[C@]3(C)CC[C@H]2C1(C)C | Dose-dependent effect | 10.9 | > 100 | 15.9 | 19.7 | 19.7 | 
8 | COC(=O)O[C@H]1CC[C@]2(C)[C@H]3C[C@@H](O)[C@@H]4[C@@H]([C@](C)(O)CCCC(C)(C)OC(=O)OC)CC[C@@]4(C)[C@]3(C)CC[C@H]2C1(C)C | Dose-dependent effect | 29.2 | > 100 | 34.6 |  |  | 
9 | CO[C@](C)(CCC=C(C)C)[C@H]1CC[C@]2(C)[C@@H]1[C@H](O)C[C@@H]1[C@@]3(C)CC[C@H](O)C(C)(C)[C@@H]3CC[C@]12C | Dose-dependent effect | 2.6 | > 100 | 1.1 | 20.6 | 20.6 | 20 - 22
10 | COC(=O)OC(C)(C)CCC[C@@](C)(O)[C@H]1CC[C@]2(C)[C@@H]1[C@H](O)C[C@@H]1[C@@]3(C)CC[C@H](O)C(C)(C)[C@@H]3CC[C@]12C | Dose-dependent effect | 27.2 | > 100 | 26.9 |  |  | 
11 | CO[C@H]1CC[C@]2(C)[C@H]3C[C@@H](OC)[C@@H]4[C@@H](/C(C)=C/CCC(C)(C)O)CC[C@@]4(C)[C@]3(C)CC[C@H]2C1(C)C | Dose-dependent effect | 12.1 | > 100 | 1.2 |  |  | 
12 | COC(=O)O[C@H]1CC[C@]2(C)[C@H]3C[C@@H](O)[C@@H]4[C@@H]([C@](C)(O)CCC=C(C)C)CC[C@@]4(C)[C@]3(C)CC[C@H]2C1(C)C | Dose-dependent effect | 1.2 | > 100 | 10.4 | 38.4 | 38.4 | 20 - 22
13 | CO[C@H]1CC[C@]2(C)[C@H]3C[C@@H](O)[C@@H]4[C@@H]([C@@](C)(CCCC(C)(C)O)OC)CC[C@@]4(C)[C@]3(C)CC[C@H]2C1(C)C | Dose-dependent effect | 5.6 | > 100 | 6.7 | 32.5 | 32.5 | 
14 | COC(=O)O[C@H]1CC[C@]2(C)[C@H]3C[C@@H](O)[C@@H]4[C@@H]([C@](C)(O)CCCC(C)(C)O)CC[C@@]4(C)[C@]3(C)CC[C@H]2C1(C)C | Dose-dependent effect | 87.1 | > 100 | 59.9 |  |  | 
15 | COC(=O)O[C@H]1CC[C@]2(C)[C@H]3C[C@@H](O)[C@@H]4[C@@H]([C@@](C)(CCC=C(C)C)OC)CC[C@@]4(C)[C@]3(C)CC[C@H]2C1(C)C | Dose-dependent effect | 41.1 | > 100 | 30.2 |  |  | 
16 | O=c1[nH]cc(F)c(=O)[nH]1 [FLUOROURACIL] |  | 26.1 | 36.1 | 28.2 |  |  | 
17 | COC(C)(C)CC/C=C(\C)[C@H]1CC[C@]2(C)[C@@H]1[C@H](O)C[C@@H]1[C@@]3(C)CC[C@H](O)C(C)(C)[C@@H]3CC[C@]12C | Dose-dependent effect | 3.2 | > 100 | 1.3 | 20.4 | 20.4 | 
